# Experiments:
# [1] = tested on: human nasopharynx cancer (KB cells); experiment: Inhibition of multiplication of human nasopharynx cancer (KB cells), MTT assay; assay type: cell-based; conditions: 72 hours
# Experimental: (§1) The effect (IC50) of the compounds obtained by Examples in inhibiting multiplication of human nasopharynx cancer (KB cells) and human colon adenocarcinoma (colon 205 cells) Each well of a 96-well microtiter plate was inoculated with 0.1 ml of human nasopharynx cancer (KB cells) (1×10^4 /ml) or human colon adenocarcinoma (colon 205 cells) (2×10^4 /ml), which was then subjected to cultivation by allowing to stand at 37° C. for 24 hours in 5% CO2. To the culture was added a 10% MEM solution (manufactured by Nissui Seiyaku or RPMI-1640), and cultivation was continued at 37° C. for 72 hours in 5% CO2. Then, the culture solution was removed with a micro-pipette. […] Incubation was conducted at 37° C for 4 hours, to which was then added 0.1 ml of a 10% SDS (Wako Pure Chemical Industries, Ltd.), and the incubation was continued at 37° C. for 24 hours.
# [2] = tested on: human colon adenocarcinoma (colon 205 cells); experiment: Inhibition of multiplication of human colon adenocarcinoma (colon 205 cells), MTT assay; assay type: cell-based; conditions: 72 hours
# Experimental: as §1
Compound,IC50 [1],IC50 [2]
"CCCCCCCCCCCCCCCCCCOCC(C[S+]([O-])CCOCC[n+]1ccc2ccccc2c1)Oc1ncccn1.[Cl-] (centres unmarked) [Ex. 4, N-[2-[2-[3-octadecyloxy-2-(pyrimidin-2-yloxy)propylsulfinyl]ethoxy]ethyl]isoquinolinium chloride]",0.32 mg/L,0.63 mg/L
"CCCCCCCCCCCCCCCCCCOCC(C[S+]([O-])CCOCC[n+]1cccc2ccccc21)Oc1ncccn1 (centres unmarked) [Ex. 5, N-[2-[2-[3-octadecyloxy-2-(pyrimidin-2-yloxy)propylsulfinyl]ethoxy]quinolinium chloride]",0.16 mg/L,0.32 mg/L
"CCCCCCCCCCCCCCCCCCOCC(C[S+]([O-])CCOCC[n+]1ccc(N(C)C)cc1)Oc1ncccn1.[Cl-] (centres unmarked) [Ex. 7, 4-dimethylamino-1-[2-[2-[3-octadecyloxy-2-(pyrimidin-2-yloxy)propylsulfinyl]ethoxy]ethyl]pyridinium chloride]",0.16 mg/L,0.63 mg/L
"CCCCCCCCCCCCCCCCCCOCC(CSCCCOCCC[n+]1ccn(CCCCCC(=O)[O-])c1)Oc1ncccn1 (centres unmarked) [Ex. 13, 6-[3-[3-[3-[3-octadecyloxy-2-(pyrimidin-2-yloxy)propylthio]propoxy]propyl]imidazolio-1-yl]hexanoate]",0.63 mg/L,1.25 mg/L
"CCCCCCCCCCCCCCCCCCOCC(CS(=O)(=O)CCCOCCC[n+]1ccsc1)Oc1ncccn1 (centres unmarked) [Ex. 15, 3-[3-[3-octadecyloxy-2-(pyrimidin-2-yloxy)propylsulfonyl]propoxy]propylthiazolium chloride]",1.25 mg/L,1.25 mg/L
"CCCCCCCCCCCCCCCCCCOCC(CS(=O)(=O)CCCOCCC[n+]1ccccc1)Oc1ncccn1.[Cl-] (centres unmarked) [Ex. 16, N-[3-[3-[3-octadecyloxy-2-(pyrimidin-2-yloxy)propylsulfonyl]propoxy]propyl]pyridinium chloride]",0.16 mg/L,0.63 mg/L
"CCCCCCCCCCCCCCCCCCOCC(CS(=O)(=O)CCCOCCC[N+](C)(C)C)Oc1ncccn1.[Cl-] (centres unmarked) [Ex. 17, N-[3-[3-[3-octadecyloxy-2-(pyrimidin-2-yloxy)propylsulfonyl]propoxy]propyl]-N,N,N-trimethylammonium chloride]",0.32 mg/L,1.25 mg/L
"CCCCCCCCCCCCCCCCCCOCC(C[S+]([O-])CCCOCCC[n+]1ccsc1)Oc1ncccn1 (centres unmarked) [Ex. 18, 3-[3-[3-octadecyloxy-2-(pyrimidin-2-yloxy)propylsulfinyl]propoxy]propylthiazolium chloride]",1.25 mg/L,1.25 mg/L
"CCCCCCCCCCCCCCCCCCOCC(CS(=O)(=O)CCOCC[n+]1ccccc1)Oc1ncccn1.[Cl-] (centres unmarked) [Ex. 20, N-[2-[2-[3-octadecyloxy-2-(pyrimidin-2-yloxy)propylsulfonyl]ethoxy]ethyl]pyridinium chloride]",< 0.08 mg/L,0.63 mg/L
"CCCCCCCCCCCCCCCCCCOCC(CSCCOCC[N+]1(C)CCCC1)Oc1ncccn1.[Cl-] (centres unmarked) [Ex. 22, N-methyl-N-[2-[2-[3-octadecyloxy-2-(pyrimidin-2-yloxy)propylthio]ethoxy]ethyl]pyrrolidinium chloride]",0.32 mg/L,1.25 mg/L
"CCCCCCCCCCCCCCCCCCOCC(CSCCOCC[N+](C)(C)C)Oc1ncccn1.[Cl-] (centres unmarked) [Ex. 23, N-[2-[2-[3-octadecyloxy-2-(pyrimidin-2-yloxy)propylthio]ethoxy]ethyl]-N,N,N-trimethylammonium chloride]",0.63 mg/L,0.63 mg/L
"CCCCCCCCCCCCCCCCCCOCC(CSCCOCC[n+]1ccn(CCCCCC(=O)OCC)c1)Oc1ncccn1 (centres unmarked) [Ex. 25, 1-[(5-ethoxycarbonyl)pentyl]-3-[2-[2-[3-octadecyloxy-2-(pyrimidin-2-yloxy)propylthio]ethoxy]ethyl]imidazolium chloride]",0.32 mg/L,2.5 mg/L
"CCCCCCCCCCCCCCCCCCOCC(CSCCOCC[n+]1ccn(CCC(C)(C)C(=O)OCC)c1)Oc1ncccn1 (centres unmarked) [Ex. 26, 1-[(3-ethoxycarbonyl-3-methyl)butyl]-3-[2-[2-[3-octadecyloxy-2-(pyrimidin-2-yloxy)propylthio]-ethoxy]ethyl]imidazolium choride]",1.25 mg/L,0.63 mg/L
